Data published in article PMC8327158, “PEGylated AdipoRon derivatives improve glucose and lipid metabolism under insulinopenic and high-fat diet conditions” (Journal of Lipid Research, 2021).
Values after ≈ are worked out from the molar mass of the structure shown.

Legend:
INS-1 β-cells = assay: Palmitate-induced cell death protection assay (PI fluorescence plate reader); format: cell-based, rat; details: PA 0.25 mM, 24 h
Description: A 7.1 mM palmitic acid stock solution was prepared in 95% ethanol by incubating at 37°C. In parallel, 2% fatty-acid-free BSA was solubilized in sterile nanopure water at 37°C. The palmitic acid/BSA complex solution was then prepared by incubating the components in a molar ratio of 5:1 at 37°C in a shaking water bath for 1 h and was used directly for INS-1 stimulation experiments. Control cultures were carried out in the presence of BSA/ethanol in RPMI without palmitic acid.
Quantification of β-cell death by PI staining was carried out on a fluorescence plate reader. Following a 2 h preincubation under serum-free conditions, INS-1 cells (60k cells/well, 96-well plate (COSTAR ref # 3603)) were kept for 24 h in Phenol Red-free FBS-free RPMI 0.5% BSA as a control or containing 0.25 mM PA-BSA in the presence or absence of treatment. Cells were stained for 10 min at 4°C with propidium iodide (PI) at 1 μg/ml (added to the existing media to avoid loss of dead cells). PI fluorescence intensity was measured with a plate reader (PHERAstar, BMG Labtech).

[1] = Liver drug concentration and bioavailability after IP dosing; format: in vivo, C57BL/6J mice; details: IP 20 mg/kg; for liver Cmax: 8-week-old C57BL/6J mice, mean ± SEM
Description: Two groups of male C57BL/6J mice (21 mice/group) at 8 weeks of age were dosed IP with 20 mg/kg AdipoRon or AdipoRonPEG5, 0.2 ml/mouse formulated as 10% DMSO/10% Cremophor/20% PEG400/60% PBS. Whole blood was harvested at seven time points post IP dosing, 10 min, 30 min, 90 min, 180 min, 360 min, 960 min, and 1,440 min. Three mice were euthanized at each time point. Plasma was processed from whole blood by centrifugation of the ACD-treated blood for 10′ at 10,000 rpm in a standard centrifuge. Additionally, the liver was harvested. The tissues were weighed and snap frozen in liquid nitrogen.
To measure liver drug concentration and bioavailability, we prepared standards by adding 98 μl blank liver homogenate to an Eppendorf, spiked with 2 μl of initial standard. For QCs, we added 98.8 μl blank liver homogenate to an Eppendorf, spiked with 1.2 μl of initial standard. For samples, we mixed 100 μl liver homogenate with 200 μl of methanol containing 0.15% formic acid and 75 ng/ml IS (IS final conc. = 50 ng/ml). The samples were vortexed 15 s, incubated at room temp for 10′, and spun 2× 13,200 rpm in a standard microcentrifuge. The supernatant was then analyzed by LC-MS/MS.

[2] = system: liver transcriptome of HFD-fed mice; assay: RNA-seq of liver of HFD-fed mice; format: in vivo, mouse
Description: RNA-sequence was performed by Novogene (Sacramento, CA) by utilizing isolated RNA. After the QC procedures, mRNA from eukaryotic organisms is enriched from total RNA using oligo(dT) beads. For prokaryotic samples, rRNA is removed using a specialized kit that leaves the mRNA. The mRNA from either eukaryotic or prokaryotic sources was then fragmented randomly in fragmentation buffer, followed by cDNA synthesis using random hexamers and reverse transcriptase. After first-strand synthesis, a custom second-strand synthesis buffer (Illumina) is added, with dNTPs, RNase H, and Escherichia coli polymerase I to generate the second strand by nick-translation, and AMPure XP beads are used to purify the cDNA. The final cDNA library is ready after a round of purification, terminal repair, A-tailing, ligation of sequencing adapters, size selection, and PCR enrichment. Library concentration was first quantified using a Qubit 2.0 fluorometer (Life Technologies) and then diluted to […] before checking insert size on an Agilent 2100 and quantifying to greater accuracy by quantitative PCR (Q-PCR) (library activity >2 nM). Libraries are fed into Novaseq6000 machines according to activity and expected data volume.
Differential expression of genes between AdipoRon-treated group and AdipoRonPEG5-treated group was analyzed by use of genes having an fpkm of ≥0 in all samples. Genes whose expression was “between 1.1 and 0.9 fold change” or “more than 1.1 fold up- “or “less than 0.9 fold down-“ regulated in liver RNA from control (n = 3) versus AdipoRon (n = 3) versus AdipoRonPEG5 group constituted “nc”, “up,” and “down” signatures. Gene expression was analyzed using Gene Ontology analysis (GO Consortium) and GenePattern software (Broad Institute).

[3] = Water solubility quantified by LC-MS/MS; format: physicochemical; details: for solubility: water
Description: We quantified the solubilities of AdiponRons by LC-MS/MS. Briefly, water (HPLC grade) was added in 50–100 μl increments to a glass vial containing either AdipoRon (0.97 mg) or AdipoRonPEG5 (1.69 mg), vortexed until the compound started to dissolve (AdipoRon, […]; AdipoRonPEG5, […]). The suspension was then stirred overnight away from light. The solution was transferred to Teflon tubes and centrifuged at 15,000 rpm at room temperature for 10 min. We then collected the supernatant (aqueous saturated solution) for dilution and analysis.
For standards, 98 μl water was added to an Eppendorf tube and combined with 200 μl of methanol containing 0.15% formic acid and 75 ng/ml […] Standard (IS, n-benzeylbenzamide in MeOH. IS final conc. = 50 ng/ml). Samples were spiked with 2 μl of IS. The samples were vortexed 15 s, and spun 2 × 13,200 rpm in a standard microcentrifuge. The supernatant was then analyzed by LC-MS/MS on a QTrap 4000 system (AB Sciex) with the following settings: Ion Source/Gas Parameters: CUR = 25, CAD = medium, IS = 5,000, TEM = 500, GS1 = 70, GS2 = 70. Buffer A: Water + 0.1% formic acid + 2 mM NH4OAC; Buffer B: methanol + 0.1% formic acid + 2 mM NH4OAC; flow rate 1.5 ml/min; Agilent C18 XDB column, 5 micron packing 50 × 4.6 mm size. HPLC elution gradient: 0–0.5 min 97% A, 0.5–2.0 min gradient to 100% B, 2.0–3.5 min 100% B, 3.5–3.6 min gradient to 97% A, 3.6–4.1 97% A. Compound transition 429.156 to 174.1 for AdipoRon and 665.289 to 135.2 for AdipoRonPEG5.

| solubility in water ([3]; LC-MS/MS, mean ± SD) [µg/mL] | Compound | protection from PA-induced cell death (INS-1 β-cells; 20 μM) | liver Cmax [1] [ng/mL] | AdipoR1 / AdipoR2 signaling pathway genes ([2]; HFD 4 weeks, 5 mg/kg 5 days) | upregulation of genes of the family of ceramidases ([2]; HFD 4 weeks, 5 mg/kg 5 days) | lipogenesis genes Acly and Scd1 ([2]; top 30 genes) | solubility ([3]; LC-MS/MS, mean ± SD) [µg/mL] | reduction of PA-induced apoptosis (INS-1 β-cells; 20 μM) [%] | protective activity against PA-induced cell death (INS-1 β-cells; dose range) | higher bioavailability in the liver than AdipoRon [1] | gluconeogenesis-related genes in the liver ([2]; HFD 4 weeks, 5 mg/kg 5 days) | triglyceride- and glucose-metabolism-related genes incl. scd1, pck1 ([2]; HFD 4 weeks, 5 mg/kg 5 days) | glutathione S-transferases Gstm1 and Gstm2 ([2]; top 30 genes) | times more soluble in water than the parent molecule ([3]; vs AdipoRon) |
| --- | --- | --- | --- | --- | --- | --- | --- | --- | --- | --- | --- | --- | --- | --- |
| 9 (≈ 21 µM) | O=C(COc1ccc(C(=O)c2ccccc2)cc1)NC1CCN(Cc2ccccc2)CC1 [AdipoRon] | further modest increase in protection | 3169.30 ± 1437.09 | sided with AdipoR2 signaling | to a lesser extent | highly upregulated | 8.99 ± 0.15 (≈ 21 µM) |  |  |  |  |  |  |  |
|  | O=C(COc1ccc(C(=O)c2ccccc2)cc1)NC1CCN(Cc2ccc(OCCOCCOCCOCCOCCO)cc2)CC1 [AdipoRonPEG5] |  | 25509.73 ± 1436.44 | preference toward amplifying AdipoR1 signaling pathway | highest |  | 910 ± 36 (≈ 1370 µM) | ~50 | potent antiapoptotic activity | eightfold | inhibitory effect | downregulated | prominent increases | about 100 times |
